According to US20140309974A1 (priority 2013, published 2014):

Key:
[1] = system: HSV-1 KOS strain expressing green fluorescent protein (GFP); assay: HSV-1 (KOS, GFP reporter) infection of NIH 3T3 cells, flow cytometry of GFP-positive cells; type: cell-based, herpes simplex virus-1 on NIH 3T3 cells; details: for antiviral effect on HSV-1 infection (in words) / percentage of infected (GFP-positive) cells after treatment: NIH 3T3 cells; for antiviral effect on HSV-1 infection (in words): HSV-1 KOS GFP, flow cytometry / fluorescence images; for percentage of infected (GFP-positive) cells after treatment: MOI about 0.1, about 16 hours, no drug gives about 60%
Method: Cell culture: NIH 3T3 cells were grown on 15 cm plates in DMEM supplemented with about 5% Fetalplex and about 1% penicillin/streptomycin and kept in an about 37° C. incubator with about 5% CO2. To propagate cells, the experiments involved plating 107 on each […] plate and splitting the cells every 24 hours. For each experimental iteration, the experiments plated 2×10^5 cells/well in a 24-well plate. To minimize variance generated from different batches of cells, the trial group and crossover group were tested and compared using the same batch of cells for each iteration.
Viral infection: HSV-1 KOS strain expressing green fluorescent protein (GFP) in frame with the ICPO protein between amino acids 104 and 105 was used. The virus was prepared by propagation of virus on a confluent monolayer of Vero cells. Supernatants from infected cells were collected and centrifuged to separate cell debris. The cell pellet in residual medium was frozen and thawed three times at about −80° C. and about 37° C., respectively. The residual supernatant was then pooled together with the original supernatant, and viral titers were determined by a standard plaque assay on Vero cell monolayers. Multiplicity of infection (MOI) of about 0.1 was used throughout except as indicated. To control MOI, cells, virus, and drug combinations were added at the same time and incubated at about 37° C. After about 17 hours, culture medium was aspirated, and cells were detached with PBS-EDTA treatment at about 37° C. for about 5 minutes. Detached cells were transferred to flow cytometry tubes, pelleted, and re-suspended in about 1.6% PFA and kept at about 4° C. until analysis. A BD FACS Canto II was used for flow cytometry analysis.
HSV-1 infectious disease model: HSV-1 infection on an NIH 3T3 fibroblast cell line was used as an in vitro model system to search for new therapeutic drug combinations. The antiviral drugs that are used in the therapeutic model include three antiviral cytokines (IFN-α, IFN-β, and IFN-γ), ribavirin, acyclovir, and TNF-α. Virus-infected cells were treated with single drugs or drug combinations and cultured for about 16 hours. The HSV-1 strain used to infect the NIH 3T3 cells encodes a GFP reporter in infected cells, allowing flow cytometric analysis of cells to measure the rate and extent of infection, because the fluorescence intensity of GFP correlated to the presence of virus. Determination of efficacy of drug treatments was made by comparing the number of GFP-negative non-infected cells in the absence or presence of drug treatment. This value was considered the antiviral readout of a drug treatment.
The infectious dose of HSV-1 used (MOI: number of infectious virions per cell) is an important parameter when evaluating the outcome of potential therapies. […] An MOI of about 0.1 was used throughout the studies.

[2] = high doses of ribavirin; cited from earlier work

Nc1nc2c(ncn2COCCO)c(=O)[nH]1 [acyclovir]
viral infection over incubation time, day 1 to day 4 (in words) ([1]; HSV-1-infected cells cultured 1 day to 4 days in presence of drug, flow cytometry): remained constant as time increased
antiviral effect on HSV-1 infection (in words) [1]: reduced the infection rate, though a large percentage of cells were infected despite drug treatment
percentage of infected (GFP-positive) cells after treatment [1]: about 15%

NC(=O)c1ncn([C@@H]2O[C@H](CO)[C@@H](O)[C@H]2O)n1 [ribavirin]
percentage of infected (GFP-positive) cells after treatment [1]: about 5%
reported side effects [2]: cause anemia, to be teratogenic in some animal tests, and to inhibit DNA synthesis in a dosage dependent manner

TNF-α
antiviral effect on HSV-1 infection (in words) [1]: potentiated HSV-1 infection, resulting in more infected cells than the non-treated control
